# Experiments:
# [1] = molecular target: Protein farnesyltransferase (Bos taurus, UniProt P29702+P49355); assay: Inhibition of the Farnesyltransferase catalyzed incorporation of [3H]FPP into recombinant Ha-Ras by 50% in bovine brain at a concentration of ca. 1 nM.; type: tissue-based
# Rat1 [2] = assay: 90% reduction in v-Ha-ras (Ras2B) transformed RAT1 cell colony size and number in soft agar assay; type: functional; conditions: Rattus norvegicus
# Rat1 [3] = assay: 90% reduction in v-raf (Raf1a1) transformed RAT1 cell colony size and number in soft agar assay; type: functional; conditions: Rattus norvegicus
# [4] = molecular target: Geranylgeranyl transferase type I (Bos taurus, UniProt P29702+Q5EAD5); assay: Inhibition of Geranylgeranyl transferase type I, an enzyme that recognizes CaaX sequences containing leucine as the terminal residue.; type: protein-complex assay
Structure (SMILES),IC50 [1],IC90 (Rat1 [2]),IC90 (Rat1 [3]),IC50 [4]
N[C@@H](CS)C(=O)Nc1ccc(Oc2ccc(C(=O)O)cc2)cc1,39 µM,–,–,–
COC(=O)c1ccc(Oc2cccc(NC(=O)[C@@H](N)CS)c2)cc1,> 100 µM,–,–,–
Cc1cccc(Oc2ccc(NC[C@@H](N)CS)cc2)c1,0.615 µM,10 µM,10 µM,–
N[C@@H](CS)CNc1cccc(Oc2ccccc2)c1,2.3 µM,–,–,–
COC(=O)c1cccc(Oc2ccc(NC(=O)[C@@H](N)CS)cc2)c1,45 µM,–,–,–
N[C@@H](CS)C(=O)Nc1cccc(Oc2cccc(C(=O)O)c2)c1,6.9 µM,–,–,–
N[C@@H](CS)C(=O)Nc1ccc(Oc2cccc(C(=O)O)c2)cc1,16 µM,–,–,–
N[C@@H](CS)CNc1ccc(Oc2ccc(C(=O)O)cc2)cc1,3.15 µM,–,–,–
N[C@@H](CS)CNc1ccc(Oc2cccc(C(=O)O)c2)cc1,0.403 µM,> 50 µM,> 50 µM,–
COC(=O)c1ccc(Oc2ccc(NC(=O)[C@@H](N)CS)cc2)cc1,> 100 µM,–,–,–
N[C@@H](CS)CNc1ccc(Oc2ccccc2)cc1,0.46 µM,10 µM,10 µM,5 µM
Cc1cccc(Oc2cccc(NC[C@@H](N)CS)c2)c1,0.33 µM,–,–,–
N[C@@H](CS)CNc1cccc(Oc2ccc(C(=O)O)cc2)c1,3.8 µM,–,–,–
N[C@@H](CS)C(=O)Nc1cccc(Oc2ccc(C(=O)O)cc2)c1,> 100 µM,–,–,–
N[C@@H](CS)CNc1cccc(Oc2cccc(C(=O)O)c2)c1,0.25 µM,> 50 µM,> 50 µM,5.8 µM
COC(=O)c1cccc(Oc2ccc(NC[C@@H](N)CS)cc2)c1,0.65 µM,10 µM,10 µM,2.3 µM
COC(=O)c1cccc(Oc2cccc(NC(=O)[C@@H](N)CS)c2)c1,45 µM,–,–,–
N[C@@H](CS)CNc1ccc(Oc2cccc(CO)c2)cc1,0.335 µM,~30 µM,30 µM,–

# Source: ChEMBL document CHEMBL1130358, “DIARYLETHER INHIBITORS OF FARNESYL-PROTEIN TRANSFERASE” (Bioorg Med Chem Lett, 1997)
